Source: publication PMC6222861, “Be Aware of Aggregators in the Search for Potential Human ecto-5′-Nucleotidase Inhibitors” (Molecules : A Journal of Synthetic Chemistry and Natural …, 2018)
In brackets after ≈: the same amount, converted by molar mass.

Assays:
[1] = Turbidimetric solubility assay; type: physicochemical; conditions: HEPES buffer with MgCl2 and CaCl2, aqueous buffer, kinetic from dmso stock; HEPES buffer 10 mM pH 7.4, MgCl2 2 mM, CaCl2 1 mM, 1.0% (v/v) DMSO; turbidity at 400 nm; read-out: Estimated Solubility
Experimental: The final DMSO concentration in each sample was 1.0% (v/v). Increased turbidity (light scattering) was measured at 400 nm, since all compounds have absorbance peaks below this wavelength. Each sample was prepared and measured in triplicate. All measurements were done using a Hitachi U-2010 spectrophotometer.

[2] = Turbidity at 400 nm as a function of time; type: physicochemical; conditions: A 500 µM, B 100 µM, D 250 µM; HEPES buffer pH 7.4, 1.0% (v/v) DMSO; precipitates seen after 60 min
Experimental: Additionally, turbidity at 400 nm as a function of time was followed for compounds A–D (Figure 6a). The concentration of each compound in these assays was near to the maximum that could be obtained, so that DMSO concentration was kept at 1.0% (v/v) in the assay buffer. […] In fact, after 60 min, precipitates at the bottom of the cuvettes were clearly observed by visual inspection (data not shown).
Figure 6 (a) Turbidity at 400 nm as a function of time measured for compounds A, B, C and D (at 500 µM, 100 µM, 80 µM and 250 µM, respectively). Each solution was prepared in HEPES buffer (10 mM), containing MgCl2 (2 mM) and CaCl2 (1 mM), pH = 7.4. Final concentration of DMSO in each sample was 1.0% (v/v); (b) Mean diameter (D) values as a function of time for compound C (80 µM) as determined by DLS. A solution of C was prepared in HEPES buffer (10 mM), containing MgCl2 (2 mM) and CaCl2 (1 mM), pH = 7.4. Final concentration of DMSO in each sample was 1.0% (v/v).
Turbidimetric assays were done using a Hitachi U-2010 spectrophotometer (Hitachi, Chiyoda, Tokyo, Japan). DLS analysis was done using a Zeta Plus Zeta-Potential Analyzer (Brookshaven Instruments Corporation, Hotsville, NY, USA) equipped with a 570 nm laser for dynamic light scattering at 90°. For enzymatic assays, absorbance measurements were done using a FlexStation 3 Multi-Mode Microplate Reader (Molecular Devices, LLC, San Jose, CA, USA).

human ecto-5′-NT [3] = biological target: T1, human ecto-5′-NT (Homo sapiens, UniProt P21589); assay: Non-ionic detergent-sensitivity evaluation: enzyme inhibition assay with 0.01% (v/v) Triton X-100; type: biochemical; conditions: human ecto-5′-NT 3.6 nM, AMP 500 µM, read-out: IC50 in the presence of 0.01% (v/v) Triton X-100
T1 construct: purchased OriGene Technologies, Inc (Rockville, MD, USA)
T1 sequence (P21589 27-574): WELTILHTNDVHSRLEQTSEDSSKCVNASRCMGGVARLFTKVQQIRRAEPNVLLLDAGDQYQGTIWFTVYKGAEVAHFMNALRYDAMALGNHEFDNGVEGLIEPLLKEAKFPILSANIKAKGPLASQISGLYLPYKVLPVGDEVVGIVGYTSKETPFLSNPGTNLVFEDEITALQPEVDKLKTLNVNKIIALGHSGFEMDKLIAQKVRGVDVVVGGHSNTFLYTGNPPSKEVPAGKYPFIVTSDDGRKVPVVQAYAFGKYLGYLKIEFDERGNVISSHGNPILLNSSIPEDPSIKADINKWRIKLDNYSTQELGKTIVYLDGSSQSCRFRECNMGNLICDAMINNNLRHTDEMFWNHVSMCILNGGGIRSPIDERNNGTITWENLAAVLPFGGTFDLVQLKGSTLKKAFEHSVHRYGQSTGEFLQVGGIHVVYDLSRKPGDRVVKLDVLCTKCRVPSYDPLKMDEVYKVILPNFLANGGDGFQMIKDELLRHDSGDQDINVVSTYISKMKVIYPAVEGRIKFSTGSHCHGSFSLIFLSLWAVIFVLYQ
Experimental: (§1) Enzyme inhibition assays (without Triton X-100). Following procedures described in the literature, with some modifications, all assays were carried out in a reaction mixture containing HEPES buffer (10 mM; pH = 7.4), MgCl2 (2 mM), CaCl2 (1 mM), human ecto-5′-NT (3.6 nM), AMP (500 µM) as substrate and variable concentration of each tested compound (from 0 to 500 µM for A and from 0 to 100 µM for B, C and D). Stock solutions of each compound were prepared in DMSO. The final concentration of DMSO in all samples/assays/experiments was 1.0% (v/v). Results were controlled for the effect of DMSO on enzymatic activity. After incubation for 10 min at 37.0 ± 0.2 °C, the reactions were stopped by heating the system for 5 min at 99.0 ± 0.2 °C. Inorganic phosphate concentrations were quantified spectrophotometrically (at λ = 630 nm), using the malachite green method, as described in the literature. Each experiment was done in triplicate. A four-parameter logistic non-linear regression model was used to fit the experimental data, using GraphPad Prism 7.0 (GraphPad, San Diego, CA, USA). From the corresponding fitted curves, we obtained the IC50 values, except when the minimum plateau value from the dose-response curve was far from zero. For such curves, IC50 ranges were estimated based on the inhibition (%) achieved at the maximum tested concentration.
(i) Non-ionic detergent-sensitivity evaluation: For each compound (A, B, C and D), enzyme inhibition assays were done, similarly as described above, using however Triton X-100 (a non-ionic detergent) at a final concentration of 0.01% (v/v) in the reaction mixture.

human ecto-5′-NT [4] = biological target: T1, human ecto-5′-NT; assay: Enzyme inhibition assay (without Triton X-100), malachite green method; type: biochemical; conditions: human ecto-5′-NT 3.6 nM; for Hill slope: concentration-inhibition curve, without Triton X-100; for IC50: AMP 500 µM, without Triton X-100, HEPES pH 7.4
Experimental: as §1

human ecto-5′-NT [5] = biological target: T1, human ecto-5′-NT; assay: Enzyme concentration sensitivity evaluation: enzyme inhibition assay at 36 nM enzyme; type: biochemical; conditions: human ecto-5′-NT 36 nM (10-fold increase), AMP 500 µM
Experimental: as §1
(ii) Enzyme concentration sensitivity evaluation: For each compound (A, B, C and D), enzyme inhibition assays were done, similarly as described above, but using human ecto-5′-NT at 36 nM (increased by 10-fold).

[6] = Dynamic light scattering (DLS), aggregation kinetics; type: physicochemical; conditions: 80 µM, HEPES buffer pH 7.4, 1.0% (v/v) DMSO
Experimental: (iv) Dynamic light scattering (DLS): Particle size (mean zeta-average diameter D) for compound C was determined using a Zeta Plus Zeta-Potential Analyzer (Brookshaven Instruments Corporation, Hotsville, NY, USA) equipped with a 570 nm laser for dynamic light scattering at 90° [63]. Solutions of Compound C (80 µM) were prepared in HEPES buffer (10 mM), pH = 7.4. The final concentration of DMSO in each sample was 1.0% (v/v).

| Compound | solubility [1] | Turbidity at 400 nm as a function of time [2] | IC50 (human ecto-5′-NT [3]) | Hill slope (human ecto-5′-NT [4]) | IC50 (human ecto-5′-NT [4]) | IC50 (human ecto-5′-NT [5]) | Aggregate particle size (mean diameter) as a function of time by DLS [6] |
| --- | --- | --- | --- | --- | --- | --- | --- |
| O=C(COC(=O)c1n[nH]c2ccccc12)Nc1c(F)cccc1F [Compound A, [(2,6-difluorophenyl)carbamoyl]methyl 1H-indazole-3-carboxylate] | 79.1 µM (≈ 26.2 µg/mL) | a decrease in turbidity is observed as a function of time | > 500 µM | −2.75 | 82.9 ± 1.1 µM |  |  |
| O=C(Nc1nc2ccc(F)cc2s1)c1cc(-c2ccccc2O)n[nH]1 [B, N-(6-fluoro-1,3-benzothiazol-2-yl)-3-(2-hydroxyphenyl)-1H-pyrazole-5-carboxamide] | 8.8 µM (≈ 3.12 µg/mL) | a decrease in turbidity is observed as a function of time | 2.3 ± 1.2 µM | −2.90 | 1.9 ± 1 µM | > 36 µM |  |
| CSc1nnc(NC(=O)c2cc(-c3cc(C)cc(C)c3O)n[nH]2)s1 [Compound C, 3-(2-hydroxy-3,5-dimethylphenyl)-N-[5-(methylsulfanyl)-1,3,4-thiadiazol-2-yl]-1H-pyrazole-5-carboxamide] | 11.7 µM (≈ 4.23 µg/mL) |  | > 100 µM | −3.19 | 16.3 ± 1.1 µM |  | aggregate particle size slowly increased with time |
| CS(=O)(=O)c1ccc2nc(NC(=O)c3cc(-c4ccccc4O)[nH]n3)sc2c1 [Compound D, 5-(2-hydroxyphenyl)-N-(6-methanesulfonyl-1,3-benzothiazol-2-yl)-1H-pyrazole-3-carboxamide] | < 0.5 µM | a decrease in turbidity is observed as a function of time | > 36 µM |  | 2.2 ± 1.2 µM | > 36 µM |  |
| Nc1ncnc2c1ncn2[C@@H]1O[C@H](COP(=O)(O)OP(=O)(O)O)[C@@H](O)[C@H]1O [ADP, adenosine diphosphate, reference compound] |  |  | 31.7 ± 1.2 µM |  | 29.7 ± 1.2 µM | 27.2 ± 1.1 µM |  |
